In brackets after ≈: the same amount, converted by molar mass. Where a name gives a salt, the structure may show the parent alone. Read-outs that look alike come from different tables or passages of the source.
Key:
S. aureus = experiment: MIC with/without bovine pulmonary surfactant, S. aureus; assay type: cell-based, Staphylococcus aureus; details: for MICRZ, Resazurin: +BPS: 2.5% v/v BPS; for MICRZ, Resazurin: no BPS
Procedure: (§1) Clinical isolates were identified by the submitting laboratories and confirmed by JMI Laboratories using standard bacteriologic algorithms and methodologies, including Matrix-Assisted Laser Desorption Ionization-Time Of Flight Mass Spectrometry (MALDI-TOF MS). When necessary, MALDI-TOF MS was performed using the Bruker Daltonics MALDI Biotyper (Billerica, Mass., USA), following manufacturer's instructions. Isolates selected were bacterial species commonly associated with pneumonia. […] 2.2 Susceptibility testing
(§2) Antibacterial susceptibility testing was measured by JMI Labs (North Liberty, Iowa, USA). […] These clinical isolates were collected from US (n=4), Mexico (n=2), and Italy (n=1). Susceptibility testing was performed by broth microdilution in accordance with the Clinical and Laboratory and Standards Institute (CLSI) guidelines M07-A10 (2015) and the standard operating procedures at JMI laboratories. Minimum inhibitory concentrations (MICs) were based on CLSI criteria (2015). There are no published breakpoints for iclaprim. E. coli, K. pneumoniae, M. catarrhalis, E. faecalis, and S. aureus were tested in cation-adjusted Mueller-Hinton broth (CA-MHB). S. pneumoniae were tested in CA-MHB supplemented with 2.5-5% lysed horse blood, and H. influenza were tested in Haemophilus test medium. Quality control and interpretation of results were performed in accordance with CLSI M100-S26 (2016) methods. QC ranges for iclaprim were those approved by CLSI and published in M100-S26 (2016). Iclaprim and comparator antibiotic MIC results were within the CLSI published ranges against E. coli ATCC 25922, E. faecalis ATCC 29212, E. faecalis ATCC 33186, H. influenzae ATCC 49247, K. pneumoniae ATCC 700603 (ESBL phenotype), S. aureus ATCC 29213, and S. pneumoniae ATCC 49619. Isolates were tested with MIC panels (ThermoFisher Scientific, Cleveland, Ohio, USA) of comparator antibiotics (daptomycin and levofloxacin).
(§3) Because bovine pulmonary surfactant can introduce cloudiness to the MIC testing media, antimicrobial growth inhibition was also evaluated using the colorimetric metabolic indicator resazurin (Camlab Ltd., Cambridge, UK). […] S. pneumoniae panels were omitted from resazurin analysis because the color change was obscured by the lysed horse blood present in the test medium. Growth inhibition was then evaluated as a visible color change from blue (no growth) to pink (robust growth) and recorded as a MICRZ value.
(§4) The MICs of iclaprim, levofloxacin, and daptomycin were determined against Gram-positive and Gram-negative isolates.
(§5) A new vial of bovine pulmonary surfactant (BPS; Survanta®; Abbott Laboratories, Columbus, Ohio) was utilized for each independent experiment. Each vial was mixed thoroughly and a 100 μL aliquot was spread on an agar plate, which was incubated overnight to confirm sterility. […] The concentration of surfactant was expressed in terms of percent volume of Survanta® suspension, which consisted of phospholipid (25 mg/mL) and surfactant proteins (<1 mg/mL) in 0.9% sodium chloride solution (Goerke, 1998). MICs of daptomycin were determined in CAMHB with the Ca^2+ content adjusted to 50 mg/L.

S. pneumoniae = experiment: MIC with/without bovine pulmonary surfactant, S. pneumoniae; assay type: cell-based; details: Streptococcus pneumoniae
Procedure: as §1, §2, §3, §4, §5

M. catarrhalis = experiment: MIC with/without bovine pulmonary surfactant, M. catarrhalis; assay type: cell-based, Moraxella catarrhalis; details: for MICRZ, Resazurin: +BPS: 2.5% v/v BPS
Procedure: as §1, §2, §3, §4, §5

E. faecalis = experiment: MIC with/without bovine pulmonary surfactant, E. faecalis; assay type: cell-based, Enterococcus faecalis; details: for MICRZ, Resazurin: +BPS: 2.5% v/v BPS; for MICRZ, Resazurin / MIC: no BPS; for MIC: Enterococcus faecalis, read-out: MIC, CLSI
Procedure: as §1, §2, §3, §4, §5

[1] = system: common Gram-positive and Gram-negative respiratory bacteria; experiment: Pulmonary surfactant interaction, overall effect on MIC and MICRZ; assay type: cell-based; details: respiratory Gram-positive strains and clinical isolates; read-out: MIC and MICRZ in the presence of 2.5% BPS
Procedure: Antibacterial susceptibility testing was measured by JMI Labs (North Liberty, Iowa, USA). […] These clinical isolates were collected from US (n=4), Mexico (n=2), and Italy (n=1). Susceptibility testing was performed by broth microdilution in accordance with the Clinical and Laboratory and Standards Institute (CLSI) guidelines M07-A10 (2015) and the standard operating procedures at JMI laboratories. Minimum inhibitory concentrations (MICs) were based on CLSI criteria (2015). There are no published breakpoints for iclaprim. E. coli, K. pneumoniae, M. catarrhalis, E. faecalis, and S. aureus were tested in cation-adjusted Mueller-Hinton broth (CA-MHB). […]
Because bovine pulmonary surfactant can introduce cloudiness to the MIC testing media, antimicrobial growth inhibition was also evaluated using the colorimetric metabolic indicator resazurin (Camlab Ltd., Cambridge, UK). […] Growth inhibition was then evaluated as a visible color change from blue (no growth) to pink (robust growth) and recorded as a MICRZ value.
as §4
A new vial of bovine pulmonary surfactant (BPS; Survanta®; Abbott Laboratories, Columbus, Ohio) was utilized for each independent experiment. […] MICs of daptomycin were determined in CAMHB with the Ca^2+ content adjusted to 50 mg/L. […]

[2] = both, rat, in vivo, iv, 4 weeks
Procedure: A repeated-dose, 4-week toxicity study was conducted in male and female rats, where single, daily IV bolus doses up to 60 mg/kg were given. […] A 28-day toxicity study was also conducted in male and female marmosets, where iclaprim mesylate was infused intravenously over a 20-minute interval.

[3] = S. aureus Clinical Isolate 825189

SMILES: CCCCCCCCCC(=O)N[C@@H](Cc1c[nH]c2ccccc12)C(=O)N[C@H](CC(N)=O)C(=O)N[C@@H](CC(=O)O)C(=O)N[C@@H]1C(=O)NCC(=O)N[C@@H](CCCN)C(=O)N[C@@H](CC(=O)O)C(=O)N[C@H](C)C(=O)N[C@@H](CC(=O)O)C(=O)NCC(=O)N[C@H](CO)C(=O)N[C@@H]([C@H](C)CC(=O)O)C(=O)N[C@@H](CC(=O)c2ccccc2N)C(=O)O[C@@H]1C [Daptomycin]
- MICRZ, Resazurin: +BPS (S. aureus; S. aureus ATCC 29213): >16 µg/mL
- MICRZ, Resazurin (S. aureus; S. aureus ATCC 29213): 0.5 µg/mL
- MICRZ, Resazurin: +BPS (S. aureus; [3]): >16 µg/mL
- MICRZ, Resazurin (S. aureus; [3]): 0.25 µg/mL
- MIC (S. pneumoniae; ATCC49619, S. pneumoniae ATCC 49619, 2.5% v/v BPS, read-out: MIC, CLSI: +BPS): 16 µg/mL (≈ 9.87 µM)
- MIC (S. pneumoniae; ATCC49619, S. pneumoniae ATCC 49619, no BPS, read-out: MIC, CLSI): 0.25 µg/mL (≈ 0.154 µM)
- MIC (S. pneumoniae; S. pneumoniae Clinical Isolate 818757, 2.5% v/v BPS, read-out: MIC, CLSI: +BPS): 16 µg/mL (≈ 9.87 µM)
- MIC (S. pneumoniae; S. pneumoniae Clinical Isolate 818757, no BPS, read-out: MIC, CLSI): 0.25 µg/mL (≈ 0.154 µM)
- MIC (S. pneumoniae; S. pneumoniae Clinical Isolate 825175, 2.5% v/v BPS, read-out: MIC, CLSI: +BPS): 16 µg/mL (≈ 9.87 µM)
- MIC (S. pneumoniae; S. pneumoniae Clinical Isolate 825175, no BPS, read-out: MIC, CLSI): 0.25 µg/mL (≈ 0.154 µM)
- MICRZ, Resazurin: +BPS (M. catarrhalis; M. catarrhalis Clinical Isolate 893806): >16 µg/mL
- MICRZ, Resazurin (M. catarrhalis; M. catarrhalis Clinical Isolate 893806, no BPS): 8 µg/mL
- MICRZ, Resazurin: +BPS (M. catarrhalis; M. catarrhalis Clinical Isolate 893807): >16 µg/mL
- MICRZ, Resazurin (M. catarrhalis; M. catarrhalis Clinical Isolate 893807, no BPS): 8 µg/mL
- MIC (M. catarrhalis; Moraxella catarrhalis, M. catarrhalis Clinical Isolate 893806, no BPS): 8 µg/mL (≈ 4.94 µM)
- MICRZ, Resazurin: +BPS (E. faecalis; E. faecalis ATCC 29212): >16 µg/mL
- MICRZ, Resazurin (E. faecalis; E. faecalis ATCC 29212): 2 µg/mL
- MICRZ, Resazurin: +BPS (E. faecalis; E. faecalis ATCC 33186): >16 µg/mL
- MICRZ, Resazurin (E. faecalis; E. faecalis ATCC 33186): 1 µg/mL
- MIC (E. faecalis; ATCC29212, E. faecalis ATCC 29212): 2 µg/mL (≈ 1.23 µM)
- MIC (E. faecalis; ATCC33186, E. faecalis ATCC 33186): 1 µg/mL (≈ 0.617 µM)
- MIC [1]: > 16 µg/mL

SMILES: COc1cc(Cc2cnc(N)nc2N)c2c(c1OC)OC(C1CC1)C=C2 (racemic) [iclaprim mesylate, 5-[(2RS)-2-cyclopropyl-7,8-dimethoxy-2Hchromen-5-ylmethyl] pyrimidine-2,4-diamine methanesulfonate]
- dosages with histopathological changes at the injection sites [2]: ≥ 10 mg/kg/day
